The results in this text go back to ChEMBL document CHEMBL1154574, “Cytonic acids A and B: novel tridepside inhibitors of hCMV protease from the endophytic fungus Cytonaema species” (J Nat Prod, 2000).

A short description of this assay: Inhibition of human cytomegalovirus protease by scintillation proximity assay. Also on record: species or system Human betaherpesvirus 5.

The compound `CCCCCc1cc(O)cc(O)c1C(=O)Oc1cc(O)c(C(=O)Oc2cc(O)c(C(=O)O)c(CCC)c2)c(CCC)c1` [CYTONIC ACID A] returned an IC50 of 43 µM.

The compound `CCCCCc1cc(OC(=O)c2c(O)cc(OC(=O)c3c(O)cc(O)cc3CCC)cc2CCC)cc(O)c1C(=O)O` [CYTONIC ACID B] showed an IC50 of 11 µM.
